Results on one molecule are retold here after patent publication US11246945B2, “Cisplatin-loaded microbubbles, pharmaceutical composition for treatment of cancer, method for preparing pharmaceutical compositions and method for treating cancer” (National Defense Medical Center, priority 2019, dated 2022).

Series [1] concerns FaDu-fLuc/GFP tumor xenograft. The series can be described thus: Anti-tumor effect on head and neck cancer xenograft (IVIS bioluminescence). The series is classed as in vivo, SCID mice. The following applies: Day 33; without ultrasound exposure. The protocol: Severe combined immunodeficiency (SCID) mice were subcutaneously implanted with luminescence-labelled hypopharynx carcinoma cell line (FaDu-fLuc/GFP) (2×10^6 cells/mouse) into the right flank region on Day 0. On Day 4, tumor xenograft formation and size in implanted SCID mice were determined by IVIS® bioluminescence imaging system (version 4.4, Caliper Life Sciences, Alameda, Calif., USA). The implanted SCID mice were then classified into group I to group V (hereinafter referred to as “Gps I-V”), and the implanted SCID mice of each group were treated with different pharmaceutical compositions, which are summarized in Table 6 below. Specifically, the mice of Gp I was the control group, and was treated with saline. The mice of Gp II were treated with cisplatin dissolved in saline. The mice of Gp III were treated with saline containing the mixture of cisplatin and albumin microbubbles (concentration: 1.4×10^8 particles/mL), followed by ultrasound exposure (power: 3 W/cm^2, 30 seconds). […] The anti-tumor effect of cisplatin-based chemotherapy was evaluated in vivo on the growth of head and neck cancer by twice-weekly recordings of luciferase bioluminescence data derived from IVIS® images. On day 33, after the IVIS® images of the mice were obtained, the mice were sacrificed and analysed.

The conditions of series [2]: intraperitoneal, single 14 mg/kg or 4.6 mg/kg/day for three consecutive days; cited from earlier work.
A short description of series [3]: Body weight during the 33-day treatment. The series is classed as in vivo, SCID mice. Conditions: 33-day treatment period; without ultrasound. The protocol:
Severe combined immunodeficiency (SCID) mice were subcutaneously implanted with luminescence-labelled hypopharynx carcinoma cell line (FaDu-fLuc/GFP) (2×10^6 cells/mouse) into the right flank region on Day 0. On Day 4, tumor xenograft formation and size in implanted SCID mice were determined by IVIS® bioluminescence imaging system (version 4.4, Caliper Life Sciences, Alameda, Calif., USA). The implanted SCID mice were then classified into group I to group V (hereinafter referred to as “Gps I-V”), and the implanted SCID mice of each group were treated with different pharmaceutical compositions, which are summarized in Table 6 below. Specifically, the mice of Gp I was the control group, and was treated with saline. The mice of Gp II were treated with cisplatin dissolved in saline. The mice of Gp III were treated with saline containing the mixture of cisplatin and albumin microbubbles (concentration: 1.4×10^8 particles/mL), followed by ultrasound exposure (power: 3 W/cm^2, 30 seconds). […] The anti-tumor effect of cisplatin-based chemotherapy was evaluated in vivo on the growth of head and neck cancer by twice-weekly recordings of luciferase bioluminescence data derived from IVIS® images. On day 33, after the IVIS® images of the mice were obtained, the mice were sacrificed and analysed. […]

A further series relates to head and neck cancers. The following applies: patients with head and neck cancers; cited from earlier work.

Take `N.N.[Cl][Pt][Cl]` [CDDP, Cis-Diamine platinum (II) Dichloride]: the “Tumor reduction / inhibition of tumor growth (luminescence flux)” value in series [1] is “significantly better outcomes as compared to Gp IV”. The Hearing threshold entry in series [2] is on record as “caused a hearing threshold shift”. In addition, in series [3], the “Body weight gain compared with Gp I, Gp IV and Gp V” value is reported as “statistically smaller body weight gain”. In addition, in the series on head and neck cancers, the Median survival time is 151 days.
